These results are taken from patent publication US10836768B2, “N-acyl-(3-substituted)-(8-substituted)-5,6-dihydro-[1,2,4]triazolo[4,3-a]pyrazines as selective NK-3 receptor antagonists” (OGEDA SA, priority 2013, dated 2020).

The test system of data set [1] is circulating levels of luteinizing hormone (LH). The data set can be described thus: Castrated male rat model, circulating LH (oral dosing). The format is in vivo. The note with it: castrated male SD rats, single oral dose less than or equal to 30 mg/kg, p<0.05. The procedure:
In vivo assay to assess compound activity in rat (oral dosing)
Castrated male rat model to assess the effect of compound of invention on circulating levels of luteinizing hormone (LH)
The effect of compounds of the invention to inhibit luteinizing hormone (LH) secretion is determined by the following biological studies.
In humans and rodents, castration is well-precedented to permit heightened, persistent GnRH signaling and consequent elevation of circulating LH. Thus, a castrated rat model is used to provide a broad index for measurement of LH inhibition as a marker of test compound inhibition of the GnRH signaling pathway.
Castrated adult male Sprague-Dawley (SD) rats (150-175 g,) were purchased from Janvier (St Berthevin, France). All animals were housed 2 per cage in a temperature-controlled room (22±2° C.) and 50±5% relative humidity with a 12 hour/12 hour light/dark cycles (lights off at […]). The animals were allowed 3 weeks of postoperative recovery prior to study. Animals were handled on a daily basis. Standard diet and tap water were provided ad libitum. Animal cage litters were changed once a week. On the study day, animals were acclimated to the procedure room for a period of one hour prior to the initiation of the experiment.
Compounds of the invention were formulated in 0.5% methyl cellulose.
After basal sampling (TO) a single dose of compounds of the invention or vehicle was administrated orally to rats. Blood samples were then collected at several time points post dosing (45, 90, 150, 300 and 420 minutes). Blood samples were obtained via tail vein bleed, drawn into EDTA-containing tubes and centrifuged immediately. Plasma samples were collected and stored in a −80° C. freezer until assayed. Serum LH levels were determined using radioimmunoassay kit from RIAZEN—Rat LH, Zentech (Liege, Belgium). Baseline was defined as the initial basal blood sample.

A further data set deals with postmenopausal women. As to the kind of experiment: Phase 2a clinical trial, menopausal hot flashes. The format is in vivo, human. Particulars: 90 mg BID. The procedure:
Clinical Evaluation of Compound No 5 for the Treatment of Menopausal Hot Flashes The study objective is to evaluate the effect of compound no 5 on the severity and frequency of hot flashes in postmenopausal women. The Phase 2a clinical trial was conducted in 80 patients, divided over 2 treatment groups of 40 patients each. […] The Phase 2a trial was double blind and randomized. This Phase 2a trial was conducted on healthy menopausal women (40-65 y) experiencing at least 49 moderate or severe hot flashes or night sweats over a period of 7 consecutive days in the screening period (maximum of 4 weeks). […] The weekly number of hot flashes was calculated in two ways: cumulatively for all severity grades, and cumulatively but leaving out the number of mild hot flashes. Hot Flash Frequencies were calculated for weeks 4 and 12. […] This score is an accepted method to assess the overall severity of the hot flash burden and is calculated weekly. […] The Hot Flash Score (based on severity and frequency) is calculated as follows: day-score=(number of mild hot flashes/day×1)+(number of moderate hot flashes/day×2)+(number of severe hot flashes/day×3) • The weekly hot flash score is calculated: […] […]

In data set [2] the test system is women diagnosed with PCOS. As to the kind of experiment: Phase 2a clinical trial, PolyCystic Ovary Syndrome (PCOS). The format is in vivo, human. The note with it: 180 mg QD. The procedure:
Clinical Evaluation of Compound No 5 for the Treatment of PolyCystic Ovary Syndrome (PCOS)
The study objectives are to evaluate the effect of compound no 5 on the serum levels of Total Testosterone (TT), Luteinizing Hormone (LH), Follicle Stimulating Hormone (FSH) and LH:FSH ratio after 12 weeks of treatment.
The Phase 2a clinical trial was conducted in 48 patients, divided over 2 treatment groups of 24 patients each. One group received placebo while the other group received 180 mg of compound no 5 once daily (QD) for a period of 12 weeks. The Phase 2a trial was double blind and randomized. […] The study was conducted on an ambulatory basis where patients were asked to visit the clinical site on the first day of dosing and at weeks 3, 6, 9 and 12 during the treatment period with a follow-up visit 2-3 weeks after conclusion of dosing.
Blood draws for LH, FSH and TT were taken every visit between 2 and 8 hours after drug intake (baseline and week 3-6-12). At week 9 the blood samples were taken in the morning before drug intake (i.e. at trough PK concentrations for compound no 5). These blood draws were the basis for assessing the primary (TT) and secondary (LH, FSH, LH:FSH ratio) endpoints. The primary endpoint of Total Testosterone was measured according to GLP using an LC-MS/MS method.
PCOS is typically characterized by excessive ovarian androgen production, failure of ovulation, and slightly enlarged ovaries with numerous peripheral small follicles that appear as cysts. The disorder is commonly accompanied by infertility. Typically, the clinical features of PCOS are associated with hypersecretion of LH and androgens (TT) but with normal serum concentrations of FSH hormone. Laboratory examinations reveal elevated TT levels in about 50% of the patients, accompanied by an elevated LH:FSH ratio (>2) due to the imbalanced secretion of both hormones (a ratio of 1 is considered normal).

For the next data set, the system named is ovariectomized ewes. As to the kind of experiment: In vivo assay in OVX ewes, thermoregulation. Also noted: species or system ewe. Particulars: 1 mg/kg i.v. The text has this:
In Vivo Assay in OVX Ewes-Activity in Thermoregulation Experimental Methods: Evaluation of Thermoregulation in OVX Ewe […] After 4 months recovery, animals were acclimatised to housing in single pens for a period of 7 days with ad libitum access to water and […] lucerne hay. One day prior to experimentation, the animals received a jugular vein cannula ([…], Tuta Laboratories, Lane Cove, Australia). The cannulo were kept patent with heparinised saline. […] Animals were fed at 12 h00. Rectal temperatures were monitored with a probe at hourly intervals throughout the experiment, starting at 7 h40 and concluding at 15 h40.

For the next data set, the system named is plasma estradiol levels. The data set can be described thus: Estradiol circulating level in female rats. In kind it is in vivo, rat. The note with it: adult female rats, 10 mg/kg b.i.d. oral, two consecutive estrous cycles (FIG. 3). The procedure:
Effect of compounds of the invention on Estradiol circulating level in female rats The aim of this study was to evaluate the effect of compounds of the invention on plasma estradiol levels following oral administration at 10 mg/kg (b.i.d.) for a period of 10 days in female rats.
Briefly the experimental methods used for this study were as follows: Two groups of adult, female rats (Sprague-Dawley, −320 g) were treated in-phase with their individual estrous cycles. Thus, treatment was started in the proestrus phase (coincident with peak estradiol levels, as shown on Day 1 in FIG. 3) and rats were dosed twice daily (˜9 h30 and 17 h30) by oral administration either with a compound of the invention at 10 mg/kg or with the vehicle for the control group. Compounds of the invention were prepared in a dose formulation of pyrogen-free water with 0.5% methylcellulose. Estradiol levels were determined for all groups by ELISA performed on plasma samples derived from blood collections taken at 30 minutes before the daily, 9 h30 test article administration on all days presented in FIG. 3.

A short description of data set [3]: Determination of plasma protein binding (equilibrium dialysis). The note with it: bound drug fraction to plasma protein; 4 hours at 37° C. In kind it is in vitro ADME. The text has this: Determination of Plasma Protein Binding
The pharmacokinetic and pharmacodynamic properties of chemicals/drugs are largely a function of the reversible binding of chemicals to plasma or serum proteins. […] Consequently, the extent of the plasma protein binding (PPB) of a compound influences its action as well as its distribution and elimination.
The determination of plasma protein binding (PPB) of a compound is enabled by equilibrium dialysis, an accepted and standard method for reliable estimation of the non-bound drug fraction in plasma. RED (Rapid Equilibrium Dialysis) device insert is made of two side-by-side chambers separated by an O-ring-sealed vertical cylinder of dialysis membrane (MWCO ˜8,000). […] After 4 hours incubation at 37° C. under shaking, an aliquot is removed from each chamber and analyzed by a LC-MS/MS procedure enables the determination of both free and bound drug.
The “free fraction” may be calculated as 100%−% rPPB (i.e. the complementary percentage of that disclosed in Table 4, corresponding to the drug concentration that is unbound and therefore available to engage biological target and elicit pharmacological activity).
For orientation: Equilibrium dialysis compares concentrations on both sides of a semipermeable membrane.

`Cc1nsc(-c2nnc3n2CCN(C(=O)c2ccc(F)cc2)[C@@H]3C)n1` [Compound 5, (R)-(4-fluorophenyl)(8-methyl-3-(3-methyl-1,2,4-thiadiazol-5-yl)-5,6-dihydro-[1,2,4]triazolo[4,3-a]pyrazin-7(8H)-yl)methanone]: the “circulating LH levels” value in data set [1] is “significantly suppressed circulating LH levels”. In the data set with postmenopausal women, the “Frequency of hot flashes vs placebo” value is listed as “significantly reduced” and the “Score of hot flashes vs placebo” value is “significantly reduced”. Further, in data set [2], the FSH secretion result was “preserved”, the LH entry was “significant decrease”, the “LH:FSH vs placebo” value was “significantly reduced” and the TT vs placebo result is recorded as “significantly reduced”. For the same molecule, in the data set on ovariectomized ewes, the “pyrogenic response to feeding” value is given as “not observed”. Besides, in the data set with plasma estradiol levels, the estradiol levels result is on record as “significantly decreased estradiol levels”. Moreover, in data set [3], the “Exposure (% rPPB)” value stood at 22%.
